# Measured values taken from PubChem BioAssay (NCI).
#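 Results reflect a 48-hour exposure of cells in 96-well plates to compound at five concentrations. TGI is the concentration that stops growth completely.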
# Key:
# Experiment in all cases: inhibition of tumour cell growth, NCI panel, 48 h
# [1] = system: SF-295 CNS
# [2] = system: SW-620 colon
# [3] = system: NCI-H460 lung
# [4] = system: MALME-3M melanoma
# [5] = system: CAKI-1 renal
# [6] = system: HL-60(TB) leukemia
# [7] = system: HOP-92 NSCLC
# [8] = system: LOX IMVI melanoma
# [9] = system: IGROV1 ovarian
# [10] = system: KM12 colon
# [11] = system: SF-539 CNS
# [12] = system: HOP-62 NSCLC
# [13] = system: HT29 colon
# [14] = system: M14 melanoma
# [15] = system: SK-OV-3 ovarian
# [16] = system: K-562 leukemia
# [17] = system: EKVX NSCLC
# [18] = system: MDA-N
# [19] = system: PC-3 prostate
# [20] = system: TK-10 renal
# [21] = system: OVCAR-5 ovarian
# [22] = system: 786-0 renal
# [23] = system: SK-MEL-5 melanoma
# [24] = system: DU-145 prostate
# [25] = system: T-47D breast
# [26] = system: NCI/ADR-RES ovarian
# [27] = system: MDA-MB-231 breast
# [28] = system: NCI-H226 lung
# [29] = system: UACC-62 melanoma
# [30] = system: MDA-MB-435
# [31] = system: HCT-15 colon
# [32] = system: SK-MEL-28 melanoma
# [33] = system: BT-549 breast
# [34] = system: SNB-19 CNS
# [35] = system: A549 NSCLC
# [36] = system: RPMI-8226 leukemia
# [37] = system: OVCAR-8 ovarian
# [38] = system: COLO 205 colon
# [39] = system: NCI-H23 lung
# [40] = system: OVCAR-3 ovarian
# [41] = system: MOLT-4 leukemia
# [42] = system: RXF 393 renal
# [43] = system: U251 CNS
# [44] = system: ACHN renal
# [45] = system: UO-31 renal
# [46] = system: HS 578T breast
# [47] = system: HCT-116 colon
# [48] = system: UACC-257 melanoma
# [49] = system: SNB-75 CNS
# [50] = system: CCRF-CEM leukemia
# [51] = system: NCI-H522 lung
# [52] = system: MCF7 breast
# [53] = system: OVCAR-4 ovarian
# [54] = system: SF-268 CNS
# [55] = system: HCC-2998 colon
# [56] = system: SN12C renal
# [57] = system: A498 renal
# [58] = system: SK-MEL-2 melanoma
smiles,measurement,setting,value
CC(=O)Nc1ccc2c3c(cc(O)c2c1)N(C(=O)CCCCCC(=O)N1CC(CCl)c2c1cc(O)c1cc(NC(C)=O)ccc21)CC3CCl (stereo not given),TGI,[1],> 100 µM
same,TGI,[2],> 100 µM
same,TGI,[3],> 100 µM
same,TGI,[4],0.0654 µM
same,TGI,[5],0.918 µM
same,TGI,[6],26 µM
same,TGI,[7],0.0392 µM
same,TGI,[8],> 100 µM
same,TGI,[9],> 87.2 µM
same,TGI,[10],0.636 µM
same,TGI,[11],0.205 µM
same,TGI,[12],> 100 µM
same,TGI,[13],> 33.3 µM
same,TGI,[14],0.125 µM
same,TGI,[15],> 100 µM
same,TGI,[16],> 100 µM
same,TGI,[17],0.803 µM
same,TGI,[18],0.085 µM
same,TGI,[19],1.8 µM
same,TGI,[20],> 100 µM
same,TGI,[21],13.3 µM
same,TGI,[22],0.0412 µM
same,TGI,[23],0.0198 µM
same,TGI,[24],0.0392 µM
same,TGI,[25],0.02 µM
same,TGI,[26],> 100 µM
same,TGI,[27],0.0503 µM
same,TGI,[28],0.0915 µM
same,TGI,[29],0.0248 µM
same,TGI,[30],0.187 µM
same,TGI,[31],14.2 µM
same,TGI,[32],> 100 µM
same,TGI,[33],0.0736 µM
same,TGI,[34],> 100 µM
CC(C)CCC[C@@H](C)[C@H]1CC[C@H]2[C@@H]3CC[C@H]4C[C@H](N)CC[C@]4(C)[C@H]3CC[C@]12C,TGI,[1],45.5 µM
same,TGI,[2],> 100 µM
same,TGI,[3],> 100 µM
same,TGI,[35],48.1 µM
same,TGI,[36],> 100 µM
same,TGI,[37],86.4 µM
same,TGI,[4],38.7 µM
same,TGI,[5],59 µM
same,TGI,[38],56.3 µM
same,TGI,[39],> 100 µM
same,TGI,[6],68.6 µM
same,TGI,[7],34.6 µM
same,TGI,[40],> 100 µM
same,TGI,[8],83 µM
same,TGI,[41],> 100 µM
same,TGI,[42],> 100 µM
same,TGI,[43],43.8 µM
same,TGI,[44],36.2 µM
same,TGI,[45],30.3 µM
same,TGI,[46],76.3 µM
same,TGI,[9],54.3 µM
same,TGI,[10],> 100 µM
same,TGI,[47],> 100 µM
same,TGI,[12],70.7 µM
same,TGI,[13],54.3 µM
same,TGI,[14],38.5 µM
same,TGI,[15],64.5 µM
same,TGI,[48],41.6 µM
same,TGI,[16],> 100 µM
same,TGI,[17],43.4 µM
same,TGI,[18],> 100 µM
same,TGI,[19],20.2 µM
same,TGI,[49],57.1 µM
same,TGI,[20],37.2 µM
same,TGI,[50],8.5 µM
same,TGI,[21],36.7 µM
same,TGI,[51],99.7 µM
same,TGI,[22],> 100 µM
same,TGI,[52],68.4 µM
same,TGI,[23],54.3 µM
same,TGI,[24],33.9 µM
same,TGI,[25],> 100 µM
same,TGI,[53],65.4 µM
same,TGI,[26],95.3 µM
same,TGI,[54],> 100 µM
same,TGI,[55],64 µM
same,TGI,[27],8.22 µM
same,TGI,[28],49.2 µM
same,TGI,[29],43.1 µM
same,TGI,[30],> 100 µM
same,TGI,[56],> 100 µM
same,TGI,[57],57.5 µM
same,TGI,[31],96.2 µM
same,TGI,[32],95 µM
same,TGI,[33],67.6 µM
same,TGI,[34],46.9 µM
COc1ccc(/C=C/c2sc3ccccc3[n+]2CCCCI)cc1OC,TGI,[1],> 10 µM
same,TGI,[2],> 10 µM
same,TGI,[3],> 10 µM
same,TGI,[35],> 10 µM
same,TGI,[36],> 10 µM
same,TGI,[37],> 10 µM
same,TGI,[4],> 10 µM
same,TGI,[5],> 10 µM
same,TGI,[39],> 10 µM
same,TGI,[6],7.48 µM
same,TGI,[7],> 10 µM
same,TGI,[40],> 10 µM
same,TGI,[8],> 10 µM
same,TGI,[41],> 10 µM
same,TGI,[42],> 10 µM
same,TGI,[43],> 10 µM
same,TGI,[44],> 10 µM
same,TGI,[45],> 10 µM
same,TGI,[46],> 10 µM
same,TGI,[9],> 10 µM
same,TGI,[10],> 10 µM
same,TGI,[11],> 10 µM
same,TGI,[47],> 10 µM
same,TGI,[12],> 10 µM
same,TGI,[13],> 10 µM
same,TGI,[14],> 10 µM
same,TGI,[15],> 10 µM
same,TGI,[48],> 10 µM
same,TGI,[16],> 10 µM
same,TGI,[17],> 10 µM
same,TGI,[18],> 10 µM
same,TGI,[19],> 10 µM
same,TGI,[58],9.47 µM
same,TGI,[49],> 10 µM
same,TGI,[20],> 10 µM
same,TGI,[50],> 10 µM
same,TGI,[21],> 10 µM
same,TGI,[51],> 10 µM
same,TGI,[22],> 10 µM
same,TGI,[52],> 10 µM
same,TGI,[23],> 10 µM
same,TGI,[24],> 10 µM
same,TGI,[53],> 10 µM
same,TGI,[26],> 10 µM
same,TGI,[54],> 10 µM
same,TGI,[55],> 10 µM
same,TGI,[27],> 10 µM
same,TGI,[28],> 10 µM
same,TGI,[29],> 10 µM
same,TGI,[30],> 10 µM
same,TGI,[56],> 10 µM
same,TGI,[57],> 10 µM
same,TGI,[31],> 10 µM
same,TGI,[32],> 10 µM
same,TGI,[33],> 10 µM
same,TGI,[34],> 10 µM
COc1cc(/C=N/n2c(Cc3ccc(Cl)cc3)n[nH]c2=O)cc(OC)c1OC,TGI,[1],> 100 µM
same,TGI,[2],> 100 µM
same,TGI,[3],> 100 µM
same,TGI,[35],> 100 µM
same,TGI,[37],> 100 µM
same,TGI,[4],> 100 µM
same,TGI,[5],> 100 µM
same,TGI,[38],> 100 µM
same,TGI,[39],> 100 µM
same,TGI,[40],> 100 µM
same,TGI,[41],> 100 µM
same,TGI,[42],> 100 µM
same,TGI,[43],> 100 µM
same,TGI,[44],> 100 µM
same,TGI,[45],> 100 µM
same,TGI,[46],27.2 µM
same,TGI,[10],> 100 µM
same,TGI,[11],> 100 µM
same,TGI,[47],> 100 µM
same,TGI,[12],> 100 µM
same,TGI,[13],> 100 µM
same,TGI,[14],> 100 µM
same,TGI,[15],> 100 µM
same,TGI,[48],> 100 µM
same,TGI,[16],> 100 µM
same,TGI,[17],> 100 µM
same,TGI,[18],> 100 µM
same,TGI,[19],> 100 µM
same,TGI,[58],> 100 µM
same,TGI,[49],> 100 µM
same,TGI,[50],> 100 µM
same,TGI,[21],> 100 µM
same,TGI,[22],> 100 µM
same,TGI,[52],> 100 µM
same,TGI,[25],> 100 µM
same,TGI,[53],> 100 µM
same,TGI,[26],> 100 µM
same,TGI,[54],> 100 µM
same,TGI,[55],> 100 µM
same,TGI,[27],> 100 µM
same,TGI,[28],> 100 µM
same,TGI,[29],> 100 µM
same,TGI,[30],> 100 µM
same,TGI,[56],> 100 µM
same,TGI,[57],> 100 µM
same,TGI,[31],> 100 µM
same,TGI,[32],> 100 µM
same,TGI,[33],> 100 µM
same,TGI,[34],> 100 µM
